Source: PubChem BioAssay AID1919000 (Molecular Pharmacology Branch, DTP, NCI, 2023)
“And” between values parts separate entries of the source, which are not always exact repeats. Equal values may be shown once. Blank lines part the entries; values can stand above or below the compound they belong to.

System: 653999-131-R-J2-PDC complex spheroids, growth % test/control
Assay: Anticancer human tumor 653999-131-R-J2-PDC patient-derived lung adenocarcinoma cell line growth inhibition [AhR]
Settings: for viability, T/C: stronger effect = lower value
How it was run: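 Complex tumor spheroids co-cultured with HUVEC and human MSC stroma; AhR antagonists tested in combination with standard-of-care and investigational agents. Top concentration at or near clinical Cmax (else 10 microM), half-log dilutions; growth expressed as percent test/control.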

[1] = curve of first compound, second compound 0.1 µM
[2] = curve of first compound, second compound 0.316 µM
[3] = curve of first compound, second compound 1 µM
[4] = curve of first compound, second compound 3.16 µM
[5] = curve of first compound, second compound 10 µM
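Note: spheroids exposed to agents for seven days.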
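Throughout, for viability, T/C: 100% = DMSO vehicle control viability.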

IC50 [1]: 233 nM
IC50 [2]: 293 nM
IC50 [3]: 514 nM
IC50 [4]: 376 nM
IC50 [5]: 48.5 nM
SMILES: O=C(C=Cn1cnc(-c2cc(C(F)(F)F)cc(C(F)(F)F)c2)n1)NNc1cnccn1 + Cc1cncc(-c2nc(NCCc3c[nH]c4ccccc34)c3ncn(C(C)C)c3n2)c1
viability, T/C (second compound 0.1 µM, first compound 0.00949 µM): 91.2%
viability, T/C (second compound 0.1 µM, first compound 0.03 µM): 65.8%
viability, T/C (second compound 0.1 µM, first compound 0.0949 µM): 62.2%
viability, T/C (second compound 0.1 µM, first compound 0.3 µM): 45.2%
viability, T/C (second compound 0.1 µM, first compound 0.949 µM): 43.8%
viability, T/C (second compound 0.1 µM, first compound 3 µM): 38.3%
viability, T/C (second compound 0.316 µM, first compound 0.00949 µM): 85%
viability, T/C (second compound 0.316 µM, first compound 0.03 µM): 74%
viability, T/C (second compound 0.316 µM, first compound 0.0949 µM): 64.2%
viability, T/C (second compound 0.316 µM, first compound 0.3 µM): 50.3%
viability, T/C (second compound 0.316 µM, first compound 0.949 µM): 39.3%
viability, T/C (second compound 0.316 µM, first compound 3 µM): 43.1%
viability, T/C (second compound 1 µM, first compound 0.00949 µM): 95.9%
viability, T/C (second compound 1 µM, first compound 0.03 µM): 77.8%
viability, T/C (second compound 1 µM, first compound 0.0949 µM): 66.4%
viability, T/C (second compound 1 µM, first compound 0.3 µM): 50.1%
viability, T/C (second compound 1 µM, first compound 0.949 µM): 48.4%
viability, T/C (second compound 1 µM, first compound 3 µM): 42.1%
viability, T/C (second compound 3.16 µM, first compound 0.00949 µM): 95.4%
viability, T/C (second compound 3.16 µM, first compound 0.03 µM): 86.7%
viability, T/C (second compound 3.16 µM, first compound 0.0949 µM): 74.9%
viability, T/C (second compound 3.16 µM, first compound 0.3 µM): 51.5%
viability, T/C (second compound 3.16 µM, first compound 0.949 µM): 40.9%
viability, T/C (second compound 3.16 µM, first compound 3 µM): 41%
viability, T/C (second compound 10 µM, first compound 0.00949 µM): 59.2%
viability, T/C (second compound 10 µM, first compound 0.03 µM): 49.8%
viability, T/C (second compound 10 µM, first compound 0.0949 µM): 52.2%
viability, T/C (second compound 10 µM, first compound 0.3 µM): 40%
viability, T/C (second compound 10 µM, first compound 0.949 µM): 34.9%
viability, T/C (second compound 10 µM, first compound 3 µM): 37.6%

IC50 (compound alone, run of 06/14/2022): > 10000 nM
SMILES: Cc1ccccc1N=Nc1ccc(NC(=O)c2ccnn2C)c(C)c1
viability, T/C (compound 0.1 µM): 96.6% [middle of 19 runs]
viability, T/C (compound 1 µM): 95.3% [middle of 20 runs]

IC50 (curve of compound): > 1000 nM
SMILES: Nc1ncn(C2CC(O)C(CO)O2)c(=O)n1 (centres undefined)
viability, T/C (compound 0.00316 µM): 105% and 95.5% and 110%
viability, T/C (compound 0.01 µM): 106% and 102% and 111%
viability, T/C (compound 0.0316 µM): 96.8% and 96.9% and 93.9%
viability, T/C (compound 0.1 µM): 89.9% and 86.5% and 91.9%
viability, T/C (compound 0.316 µM): 86.2% and 91.9% and 90.9%
viability, T/C (compound 1 µM): 77.5% and 78.8% and 85.9%

Continued, compound first:

SMILES: Nc1ccccc1NC(=O)c1ccc(CNC(=O)OCc2cccnc2)cc1 + Cc1cncc(-c2nc(NCCc3c[nH]c4ccccc34)c3ncn(C(C)C)c3n2)c1
IC50 [1]: 2930 nM
IC50 [2]: 2890 nM
IC50 [3]: 3060 nM
IC50 [4]: 2710 nM
IC50 [5]: 388 nM
viability, T/C (second compound 0.1 µM, first compound 0.0316 µM): 85.2%
viability, T/C (second compound 0.1 µM, first compound 0.1 µM): 86.2%
viability, T/C (second compound 0.1 µM, first compound 0.316 µM): 88.8%
viability, T/C (second compound 0.1 µM, first compound 1 µM): 61.4%
viability, T/C (second compound 0.1 µM, first compound 3.16 µM): 52%
viability, T/C (second compound 0.1 µM, first compound 10 µM): 15.9%
viability, T/C (second compound 0.316 µM, first compound 0.0316 µM): 91.1%
viability, T/C (second compound 0.316 µM, first compound 0.1 µM): 85.9%
viability, T/C (second compound 0.316 µM, first compound 0.316 µM): 84.3%
viability, T/C (second compound 0.316 µM, first compound 1 µM): 57.2%
viability, T/C (second compound 0.316 µM, first compound 3.16 µM): 56.6%
viability, T/C (second compound 0.316 µM, first compound 10 µM): 13.2%
viability, T/C (second compound 1 µM, first compound 0.0316 µM): 88.3%
viability, T/C (second compound 1 µM, first compound 0.1 µM): 86.7%
viability, T/C (second compound 1 µM, first compound 0.316 µM): 69.3%
viability, T/C (second compound 1 µM, first compound 1 µM): 65.7%
viability, T/C (second compound 1 µM, first compound 3.16 µM): 55.6%
viability, T/C (second compound 1 µM, first compound 10 µM): 13.3%
viability, T/C (second compound 3.16 µM, first compound 0.0316 µM): 93%
viability, T/C (second compound 3.16 µM, first compound 0.1 µM): 113%
viability, T/C (second compound 3.16 µM, first compound 0.316 µM): 88.4%
viability, T/C (second compound 3.16 µM, first compound 1 µM): 57.7%
viability, T/C (second compound 3.16 µM, first compound 3.16 µM): 55.4%
viability, T/C (second compound 3.16 µM, first compound 10 µM): 8.91%
viability, T/C (second compound 10 µM, first compound 0.0316 µM): 66.7%
viability, T/C (second compound 10 µM, first compound 0.1 µM): 46.9%
viability, T/C (second compound 10 µM, first compound 0.316 µM): 45.3%
viability, T/C (second compound 10 µM, first compound 1 µM): 44.3%
viability, T/C (second compound 10 µM, first compound 3.16 µM): 36.6%
viability, T/C (second compound 10 µM, first compound 10 µM): 4.53%

SMILES: CC[C@@]1(O)C(=O)OCc2c1cc1n(c2=O)Cc2cc3c(CN(C)C)c(O)ccc3nc2-1
viability, T/C (compound 0.000316 µM): 118% and 95.5% and 101%
viability, T/C (compound 0.001 µM): 100% and 95.1% and 108%
viability, T/C (compound 0.00316 µM): 91.8% and 99.8% and 102%
viability, T/C (compound 0.01 µM): 80.7% and 79.8% and 91.8%
viability, T/C (compound 0.0316 µM): 69.5% and 61.3% and 63.9%
viability, T/C (compound 0.1 µM): 44.3% and 36.5% and 48%
IC50 (curve of compound): 84.8 nM and 51.8 nM and 86.6 nM

SMILES: O=C(c1cc(Cc2n[nH]c(=O)c3ccccc23)ccc1F)N1CCN(C(=O)C2CC2)CC1
viability, T/C (compound 0.0316 µM): 107% and 92.7% and 109%
viability, T/C (compound 0.1 µM): 102% and 99.8% and 95.5%
viability, T/C (compound 0.316 µM): 96.7% and 98.2% and 106%
viability, T/C (compound 1 µM): 98.8% and 93.7% and 86.1%
viability, T/C (compound 3.16 µM): 97.4% and 95.6% and 95.2%
viability, T/C (compound 10 µM): 86% and 84.6% and 77.5%
IC50 (curve of compound): > 10000 nM
